Structures are written as SMILES. pIC50: −log10 of the molar value.

For orientation: pIC50 means the negative decadic logarithm of the IC50, by convention in mol/L. A low value points to a high IC50.

The target in the first experiment is T1, Thromboxane-A synthase (Homo sapiens, UniProt P24557).
T1 sequence (P24557 whole entry): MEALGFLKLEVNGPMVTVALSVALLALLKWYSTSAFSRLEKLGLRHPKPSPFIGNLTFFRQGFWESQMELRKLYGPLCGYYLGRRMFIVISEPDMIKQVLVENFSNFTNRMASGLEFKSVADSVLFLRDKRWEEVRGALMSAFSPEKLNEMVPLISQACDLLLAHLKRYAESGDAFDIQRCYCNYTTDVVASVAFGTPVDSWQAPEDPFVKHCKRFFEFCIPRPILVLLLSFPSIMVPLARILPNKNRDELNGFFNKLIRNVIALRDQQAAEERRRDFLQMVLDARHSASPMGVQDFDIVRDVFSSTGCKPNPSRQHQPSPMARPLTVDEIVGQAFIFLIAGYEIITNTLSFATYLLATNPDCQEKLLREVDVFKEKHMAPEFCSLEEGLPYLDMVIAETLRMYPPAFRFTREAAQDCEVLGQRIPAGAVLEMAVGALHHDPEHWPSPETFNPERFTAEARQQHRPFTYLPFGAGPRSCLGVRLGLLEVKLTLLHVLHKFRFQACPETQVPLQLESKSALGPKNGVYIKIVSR
The experiment is described as follows: Compound was tested for inhibitory activity against human platelet microsomal TXA2 synthase.
For the molecule `COc1ccc(COCC(Cn2ccnc2)OCc2ccc(C(=O)O)cc2)cc1` (stereo unspecified), the pIC50 is 5.96.

Consider `CCCCOC(=O)c1ccc(COC(COCc2ccc(OC)cc2)Cn2ccnc2)cc1` (stereo unspecified), for which the pIC50 is 5.70.

On to `COc1ccc(COCC(Cn2ccnc2)OCc2ccc(C(=O)OCc3ccccc3)cc2)cc1` (stereo unspecified), for which the pIC50 was 5.15.

`CCOC(=O)c1ccc(COC(COCc2ccc(OC)cc2)Cn2ccnc2)cc1` (stereo unspecified) gave a pIC50 of 5.28.

In the next experiment the target is T1, Thromboxane-A synthase. The experiment is described as follows: Tested for inhibitory activity against intact human platelet TXA2 formation. The format is functional.
Molecule `COc1ccc(COCC(Cn2ccnc2)OCc2ccc(C(=O)O)cc2)cc1` (stereo unspecified) had a pIC50 of 5.17.

For the molecule `COc1ccc(COCC(Cn2ccnc2)OCc2ccc([S+](C)[O-])cc2)cc1` (stereo unspecified), the pIC50 was 5.07.

The molecule `COc1ccc(COCC(Cn2ccnc2)OCc2ccc(C(=S)N(C)C)cc2)cc1` (stereo unspecified) gave a pIC50 of 4.91. This pIC50 and that of the molecule before are within 0.2 log units of each other.

The molecule `CCNC(=O)c1ccc(COC(COCc2ccc(OC)cc2)Cn2ccnc2)cc1` (stereo unspecified) had a pIC50 of 4.91.

Molecule `COc1ccc(COCC(Cn2ccnc2)OCc2ccc(C(=O)N(C)C)cc2)cc1` (stereo unspecified) showed a pIC50 of 5.71.

On to `COc1ccc(COCC(Cn2ccnc2)OCc2ccc(C(=O)Oc3ccccc3)cc2)cc1` (stereo unspecified), for which the pIC50 is 6.25.

`COc1ccc(COCC(Cn2ccnc2)OCc2ccc(C(N)=O)cc2)cc1` (stereo unspecified) showed a pIC50 of 5.22.

`CCCCOC(=O)c1ccc(COC(COCc2ccc(OC)cc2)Cn2ccnc2)cc1` (stereo unspecified) had a pIC50 of 6.70.

As for `COc1ccc(COCC(Cn2ccnc2)OCc2ccc(C(=O)OCc3ccccc3)cc2)cc1` (stereo unspecified), the pIC50 was 5.83.

As for `CCOC(=O)c1ccc(COCC(Cn2ccnc2)OCc2ccc(C(=O)OCC)cc2)cc1` (stereo unspecified), the pIC50 was 6.15.

For the molecule `COc1ccc(COCC(Cn2ccnc2)OCc2ccc(S(C)(=O)=O)cc2)cc1` (stereo unspecified), the pIC50 is 4.60. Compared with the last molecule, the pIC50 is 1.55 log units lower.

In the case of `CCCOC(=O)c1ccc(COC(COCc2ccc(OC)cc2)Cn2ccnc2)cc1` (stereo unspecified), the pIC50 was 6.74.

In turn, `COc1ccc(COCC(Cn2ccnc2)OCc2ccc3c(c2)COC3=O)cc1` (stereo unspecified) gave a pIC50 of 5.21.

In turn, `CCCCN(C)C(=O)c1ccc(COC(COCc2ccc(OC)cc2)Cn2ccnc2)cc1` (stereo unspecified) had a pIC50 of 5.27.

The molecule `COc1ccc(COCC(Cn2ccnc2)OCc2ccc(C(=O)OC(C)C)cc2)cc1` (stereo unspecified) gave a pIC50 of 5.79.

`COC(=O)c1ccc(COC(COCc2ccc(OC)cc2)Cn2ccnc2)cc1` (stereo unspecified) showed a pIC50 of 5.90.

As for `CCCCCCCCOC(=O)c1ccc(COC(COCc2ccc(OC)cc2)Cn2ccnc2)cc1` (stereo unspecified), the pIC50 was 4.68.

On to `CCOC(=O)c1ccc(COCC(Cn2ccnc2)OCc2ccc(OC)cc2)cc1` (stereo unspecified), for which the pIC50 is 5.44.

In turn, `COc1ccc(COCC(Cn2ccnc2)OCc2ccc(OC)cc2)cc1` (stereo unspecified) gave a pIC50 of 5.00.

With `COc1ccc(COCC(Cn2ccnc2)OCc2ccc(SC)cc2)cc1` (stereo unspecified), the pIC50 was 5.19.

With `CCOC(=O)c1cccc(COC(COCc2ccc(OC)cc2)Cn2ccnc2)c1` (stereo unspecified), the pIC50 was 5.14.

With `CCOC(=O)c1ccc(COC(COCc2ccc(OC)cc2)Cn2ccnc2)cc1` (stereo unspecified), the pIC50 was 6.27.

For the origin of these results see ChEMBL document CHEMBL1123832, “Structure-activity relationships in an imidazole-based series of thromboxane synthase inhibitors” (J Med Chem, 1987).
